Source: ChEMBL document CHEMBL3608308, “Design, synthesis and antiproliferative activity of novel heterobivalent hybrids based on imidazo[2,1-b][1,3,4]thiadiazole and imidazo[2,1-b][1,3]thiazole scaffolds” (Eur J Med Chem, 2015)
The source made the active and inactive calls. No cut-off for these calls is given here.

Key:
HL-60 [1] = experiment: Induction of DNA laddering in human HL60 cells at 3 to 10 uM incubated for 24 hrs by ethidium bromide staining based gel electrophoresis method; assay type: functional, cell-based
HL-60 [2] = experiment: Cytotoxicity against human HL60 cells assessed as reduction in cell viability incubated for 72 hrs by MTT assay; assay type: functional, cell-based; conditions: for IC50: HL-60, 72 h
SK-MEL-1 = experiment: Cytotoxicity against human SK-MEL-1 cells assessed as reduction in cell viability incubated for 72 hrs by MTT assay; assay type: functional, cell-based; conditions: for IC50: SK-MEL-1, 72 h
U-937 [3] = experiment: Induction of apoptosis in human U937 cells assessed as cleavage of pro-caspase-9 at 3 uM incubated for 8 hrs by immunoblot method; assay type: functional, cell-based
U-937 [4] = experiment: Induction of apoptosis in human U937 cells assessed as induction of morphological changes by inverted phase contrast microscopy; assay type: functional, cell-based
L1210 [5] = experiment: Antiproliferative activity against mouse L1210 cells assessed as inhibition of cell proliferation incubated for 2 days by Coulter counter based assay; assay type: functional; conditions: L1210, 48 h
HL-60 [6] = experiment: Induction of apoptosis in human HL60 cells assessed as hypodiploid cells level at 1 and 10 uM incubated for 24 hrs by propidium iodide staining based flow cytometry; assay type: functional, cell-based
HL-60 [7] = experiment: Induction of apoptosis in human HL60 cells assessed as increase in cytochrome c release into cytosol at 3 uM incubated for 8 hrs by immunoblot method; assay type: functional, cell-based
U-937 [8] = experiment: Induction of apoptosis in human U937 cells assessed as induction of increase in condensed and fragmented chromatin at 3 uM incubated for 8 hrs by Hoechst 33258 staining based fluorescent microscopy; assay type: functional, cell-based
U-937 [9] = experiment: Induction of apoptosis in human U937 cells over-expressing human Bcl-2 assessed as induction of morphological changes by inverted phase contrast microscopy; assay type: functional, cell-based
U-937 [10] = experiment: Induction of apoptosis in human U937 cells assessed as induction of increase in apoptotic bodies at 3 uM incubated for 8 hrs by Hoechst 33258 staining based fluorescent microscopy; assay type: functional, cell-based
U-937 [11] = experiment: Induction of apoptosis in human U937 cells over-expressing human Bcl-2 assessed as increase in cytochrome c release into cytosol at 3 uM incubated for 8 hrs by immunoblot method; assay type: functional, cell-based
HL-60 [12] = experiment: Induction of apoptosis in human HL60 cells assessed as cleavage of pro-caspase-3 at 3 uM incubated for 8 hrs by immunoblot method; assay type: functional, cell-based
HL-60 [13] = experiment: Induction of apoptosis in human HL60 cells assessed as induction of morphological changes by inverted phase contrast microscopy; assay type: functional, cell-based
U-937 [14] = experiment: Induction of apoptosis in human U937 cells over-expressing human Bcl-2 assessed as induction of increase in condensed and fragmented chromatin at 3 uM incubated for 8 hrs by Hoechst 33258 staining based fluorescent microscopy; assay type: functional, cell-based
U-937 [15] = experiment: Induction of apoptosis in human U937 cells over-expressing human Bcl-2 assessed as induction of increase in apoptotic bodies at 3 uM incubated for 8 hrs by Hoechst 33258 staining based fluorescent microscopy; assay type: functional, cell-based
U-937 [16] = experiment: Induction of apoptosis in human U937 cells assessed as cleavage of pro-caspase-3 at 3 uM incubated for 8 hrs by immunoblot method; assay type: functional, cell-based
U-937 [17] = experiment: Cytotoxicity against human U937 cells assessed as reduction in cell viability incubated for 72 hrs by MTT assay; assay type: functional, cell-based; conditions: for IC50: U-937, 72 h
HL-60 [18] = experiment: Induction of apoptosis in human HL60 cells assessed as cleavage of pro-caspase-9 at 3 uM incubated for 8 hrs by immunoblot method; assay type: functional, cell-based
CCRF-CEM = experiment: Antiproliferative activity against human CEM cells assessed as inhibition of cell proliferation incubated for 3 days by Coulter counter based assay; assay type: functional; conditions: 72 h
HL-60 [19] = experiment: Induction of apoptosis in human HL60 cells assessed as hypodiploid cells level at 1 uM incubated for 24 hrs by propidium iodide staining based flow cytometry relative to untreated control; assay type: functional
U-937 [20] = experiment: Cytotoxicity against human U937 cells over-expressing human Bcl-2 assessed as reduction in cell viability incubated for 72 hrs by MTT assay; assay type: functional, cell-based; conditions: for IC50: U-937, 72 h
U-937 [21] = experiment: Induction of apoptosis in human U937 cells assessed as increase in cytochrome c release into cytosol at 3 uM incubated for 8 hrs by immunoblot method; assay type: functional, cell-based
FM3A = experiment: Antiproliferative activity against mouse FM3A cells assessed as inhibition of cell proliferation incubated for 2 days by Coulter counter based assay; assay type: functional; conditions: 48 h
U-937 [22] = experiment: Induction of apoptosis in human U937 cells assessed as cleavage of pro-caspase-8 at 3 uM incubated for 8 hrs by immunoblot method; assay type: functional, cell-based
HL-60 [23] = experiment: Induction of apoptosis in human HL60 cells assessed as hypodiploid cells level at 1 uM incubated for 24 hrs by propidium iodide staining based flow cytometry (reference value: 2.6 +/- 0.6%); assay type: functional
HeLa = experiment: Antiproliferative activity against human HeLa cells assessed as inhibition of cell proliferation incubated for 4 days by Coulter counter based assay; assay type: functional; conditions: 96 h
HL-60 [24] = experiment: Induction of apoptosis in human HL60 cells assessed as cleavage of pro-caspase-8 at 3 uM incubated for 8 hrs by immunoblot method; assay type: functional, cell-based
HL-60 [25] = experiment: Induction of apoptosis in human HL60 cells assessed as cleavage of pro-caspase-3/7 activity at 3 uM incubated for 8 hrs DEVD-pNA chromogenic substrate proteolytic cleavage assay; assay type: functional
U-937 [26] = experiment: Induction of apoptosis in human U937 cells over-expressing human Bcl-2 assessed as induction of cell shrinkage at 3 uM incubated for 8 hrs by Hoechst 33258 staining based fluorescent microscopy; assay type: functional
U-937 [27] = experiment: Induction of apoptosis in human U937 cells assessed as induction of cell shrinkage at 3 uM incubated for 8 hrs by Hoechst 33258 staining based fluorescent microscopy; assay type: functional
L1210 [28] = experiment: Cytotoxicity against mouse L1210 cells; assay type: functional, cell-based

Row | Structure (SMILES) | Activity (HL-60 [1]) | Activity (HL-60 [2]) | IC50 (HL-60 [2]) [nM] | Activity (SK-MEL-1) | IC50 (SK-MEL-1) [nM] | Activity (U-937 [3]) | Activity (U-937 [4]) | IC50 (L1210 [5]) [nM] | Activity (HL-60 [6]) | Activity (HL-60 [7]) | Activity (U-937 [8]) | Activity (U-937 [9]) | Activity (U-937 [10]) | Activity (U-937 [11]) | Activity (HL-60 [12]) | Activity (HL-60 [13]) | Activity (U-937 [14]) | Activity (U-937 [15]) | Activity (U-937 [16]) | Activity (U-937 [17]) | other results
1 | C=C(Br)C(=O)Nc1cccc(-c2cn3nc(-c4ccc(F)cc4)sc3n2)c1 | inactive | Dose-dependent effect | 530 | Dose-dependent effect | 1100 | Active | Active | 250 | Dose-dependent effect | Active | Active | Active | Active | Active | Active | Active | Active | Active | Active | Dose-dependent effect | IC50 (U-937 [17]): 560 nM; Activity (HL-60 [18]): Active; IC50 (CCRF-CEM): 830 nM; fold change (FC) (HL-60 [19]): 4.6; Activity (U-937 [20]): Dose-dependent effect; IC50 (U-937 [20]): 370 nM; Activity (U-937 [21]): Active; IC50 (FM3A): 610 nM; Activity (U-937 [22]): Active; Activity (HL-60 [23]): 12.1%; IC50 (HeLa): 870 nM; Activity (HL-60 [24]): Active; fold change (FC) (HL-60 [25]): 2.3; Activity (U-937 [26]): Active; Activity (U-937 [27]): Active
2 | C=C(Br)C(=O)Nc1cccc(-c2cn3nc(-c4ccc(OC)c(OC)c4)sc3n2)c1 | inactive | Dose-dependent effect | 210 | Dose-dependent effect | 770 | Active | Active | 42 | Dose-dependent effect | Active | Active | Active | Active | Active | Active | Active | Active | Active | Active | Dose-dependent effect | IC50 (U-937 [17]): 270 nM; Activity (HL-60 [18]): Active; IC50 (CCRF-CEM): 380 nM; fold change (FC) (HL-60 [19]): 6; Activity (U-937 [20]): Dose-dependent effect; IC50 (U-937 [20]): 210 nM; Activity (U-937 [21]): Active; IC50 (FM3A): 110 nM; Activity (U-937 [22]): Active; Activity (HL-60 [23]): 16%; IC50 (HeLa): 610 nM; Activity (HL-60 [24]): Active; fold change (FC) (HL-60 [25]): 3.2; Activity (U-937 [26]): Active; Activity (U-937 [27]): Active
3 | C=C(Br)C(=O)O |  |  |  |  |  |  |  |  |  |  |  |  |  |  |  |  |  |  |  |  | IC50 (L1210 [28]): > 120000 nM
4 | C=C(Br)C(=O)Nc1cccc(-c2cn3c(-c4ccc(OC)cc4)csc3n2)c1 | inactive | Dose-dependent effect | 610 | Dose-dependent effect | 1000 | Active | Active | 200 | Dose-dependent effect | Active | Active | Active | Active | Active | Active | Active | Active | Active | Active | Dose-dependent effect | IC50 (U-937 [17]): 630 nM; Activity (HL-60 [18]): Active; IC50 (CCRF-CEM): 500 nM; fold change (FC) (HL-60 [19]): 4; Activity (U-937 [20]): Dose-dependent effect; IC50 (U-937 [20]): 370 nM; Activity (U-937 [21]): Active; IC50 (FM3A): 620 nM; Activity (U-937 [22]): Active; Activity (HL-60 [23]): 11.1%; IC50 (HeLa): 860 nM; Activity (HL-60 [24]): Active; fold change (FC) (HL-60 [25]): 3.8; Activity (U-937 [26]): Active; Activity (U-937 [27]): Active
5 | C=C(Br)C(=O)Nc1cccc(-c2cn3nc(-c4cccs4)sc3n2)c1 | inactive | Dose-dependent effect | 380 | Dose-dependent effect | 690 | Active | Active | 170 | Dose-dependent effect | Active | Active | Active | Active | Active | Active | Active | Active | Active | Active | Dose-dependent effect | IC50 (U-937 [17]): 570 nM; Activity (HL-60 [18]): Active; IC50 (CCRF-CEM): 410 nM; fold change (FC) (HL-60 [19]): 5.6; Activity (U-937 [20]): Dose-dependent effect; IC50 (U-937 [20]): 270 nM; Activity (U-937 [21]): Active; IC50 (FM3A): 370 nM; Activity (U-937 [22]): Active; Activity (HL-60 [23]): 14.5%; IC50 (HeLa): 670 nM; Activity (HL-60 [24]): Active; fold change (FC) (HL-60 [25]): 3; Activity (U-937 [26]): Active; Activity (U-937 [27]): Active
